Tests used:
[1] = tested on: tumor cells harboring PI3K α mutations; experiment: Proliferation of tumor cells with or without PI3K α mutations; assay type: cell-based; conditions: FIG. 13
[2] = tested on: PI3 kinase signaling pathway in MDA-MB-361, HCC-1419 and NCI-H1048 cells; experiment: Cellular signaling immunoblot in human tumor cell lines; assay type: cell-based; conditions: single agents; Compound B 5-100 nM, Compound A 1 and 3 μM; 2 or 24 hours
Experimental: Compound A was synthesized at Intellikine and was supplied as a stock of 10 mM in 100% DMSO and diluted in the respective cell line's growth media.
Prior to treatment, cells were plated at 2×10^5 cells/well in 12-well plates in normal growth media and grown to 80% confluence. Cells were treated for 2 or 24 hours in a CO2 incubator set to 37° C. with normal growth media containing inhibitor diluted in DMSO.
Media was aspirated, cells were washed with 1×PBS, Ice cold 1× Cell Lysis Buffer was prepared from 10× stock and 100 μM 4-(2-Aminoethyl) benzenesulfonyl fluoride hydrochloride (AEBSF) andlmM sodium orthovanadate […] was added. Cells were lysed by adding 1× Cell Lysis Buffer (100 μL per well of 12-well plate of cells). Cells incubated on ice for 20 to 30 minutes to allow complete lysis, and lysates were transferred to microcentrifuge tubes, sonicated for 10 seconds, and subjected to microcentrifugation at 14,000×g for 10 minutes at 4° C. Cleared supernatants were transferred to fresh tubes, and stored at −20° C. for Western blot analysis. […] Molecular weight markers were loaded, the gel electrophoresed at 200V for 40 minutes.
The gels were electrotransferred to nitrocellulose membranes, and incubated in blocking buffer (Tris buffered saline plus 0.5% Tween-20 (TBS/T)+5% bovine serum albumin (BSA)) for 1 hour at room temperature. […]

[3] = tested on: PTEN mutant cells; experiment: Western blot of Akt, S6, 4EBP phosphorylation in PTEN mutant cells; assay type: cell-based; conditions: PTEN-mutant cell line; FIG. 12B
[4] = tested on: 786-O cells (non-mutated PI3Kα) tumors; experiment: 786-O human kidney carcinoma xenograft; assay type: in vivo, mice; conditions: Compound A orally 60 and 120 mg/kg; 1 mg/kg (QD) oral solution
Experimental: Compound A was administered orally at 60 and 120 mg/kg and compound A was administered orally as a solution at 1 mg/kg (QD). For example, a PI3Kα inhibitor is compared to a kinase inhibitor with specificity for mTor. […] FIG. 6C also provides biochemical potency data for the two compared inhibitors. PI3 Kinase α, β, γ and δ activity was assayed using the PI3 Kinase HTRF® assay kit (Millipore Corporation). Purified recombinant PI3Kα, PI3Kβ, PI3Kγ and PI3Kδ were obtained from Millipore Corporation. […] Emission ratios were converted into percent inhibitions and imported into GraphPad Prism software. […] IC50 values were determined using a nonlinear regression model available in GraphPad Prism 5.

SMILES: Nc1nc2cc(-c3ccc4ncc(C(=O)N5CCOCC5)n4c3)ccc2o1 [Compound A]
- inhibition of proliferation of tumor cells [1]: preferentially inhibits proliferation
- phosphorylation of downstream targets AKT, S6 and 4E-BP1 (Western blot, FIG. 15) [2]: potently inhibited
- inhibition of Akt phosphorylation at serine 473 [3]: reduced inhibition
- inhibition of kinase activity and tumor growth in 786-O model (FIG. 6) [4]: decreased activity

Reference: patent publication US20160089371A1, “Combination of Kinase Inhibitors and Uses Thereof” (INTELLIKINE, LLC, priority 2013, published 2016)
